In PubChem BioAssay AID248 (DTP/NCI, 2004) one finds T/C data, which are given here for 17 compounds.

The test relates to L1210 leukemia ip in BDF1 mice, survival T/C. Nature of the test: NCI In Vivo Anticancer Drug Screen. Data for tumor model L1210 Leukemia (intraperitoneal) in B6D2F1 (BDF1) mice. Conditions: endpoint: mean survival time, higher = longer survival. Summed up:
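Read-out is survival time, reported as the treated-group measurement over the vehicle-control measurement.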

Setting [1] is: dose: 100.0 mg/kg/injection, schedule: Q01DX001 (ip), vehicle: saline.
Setting [2] is: dose: 200.0 mg/kg/injection, schedule: Q01DX001 (ip), vehicle: saline.
Where [3] appears, read: dose: 400.0 mg/kg/injection, schedule: Q01DX001 (ip), vehicle: saline.
Setting [4] is: dose: 100.0 mg/kg/injection, schedule: Q04DX002 (ip), vehicle: Klucel (hydroxypropylcellulose) (HPC).
[5] abbreviates: dose: 200.0 mg/kg/injection, schedule: Q04DX002 (ip), vehicle: Klucel (hydroxypropylcellulose) (HPC).

Several values for one entry are separate records, joined by “and”; a condition that tells them apart may be missing. Equal entries are not always repeated. Inconclusive results and toxic doses are left out.

Consider `N=C(N)Cc1ccc(NC(=O)c2ccc(C(=O)Nc3ccc(CC(=N)N)cc3)cc2)cc1`, for which the T/C was 108 % of control (dose: 3.75 mg/kg/injection, schedule: Q01DX Z (ip), vehicle: methylcellulose (MC)); 89 % of control (dose: 3.75 mg/kg/injection, schedule: Q01DX Z (ip), vehicle: saline); 108 % of control (dose: 7.5 mg/kg/injection, schedule: Q01DX Z (ip), vehicle: methylcellulose (MC)); 155 % of control (dose: 15.0 mg/kg/injection, schedule: Q01DX Z (ip), vehicle: saline); 105 % of control (dose: 15.0 mg/kg/injection, schedule: Q01DX Z (oral), vehicle: saline); 171 % of control (dose: 16.5 mg/kg/injection, schedule: Q01DX009 (ip), vehicle: saline with Tween-80). Moreover, the T/C is 107 % of control and 109 % of control (dose: 22.0 mg/kg/injection, schedule: Q01DX001 (ip), vehicle: carboxymethylcellulose (CMC)); 219 % of control (dose: 25.0 mg/kg/injection, schedule: Q01DX009 (ip), vehicle: saline with Tween-80); 174 % of control (dose: 25.0 mg/kg/injection, schedule: Q01DX009 (ip), vehicle: saline); 107 % of control (dose: 25.0 mg/kg/injection, schedule: Q04DX003 (ip), vehicle: saline); 116 % of control (dose: 30.0 mg/kg/injection, schedule: Q01DX Z (ip), vehicle: methylcellulose (MC)); 103 % of control and 113 % of control (dose: 30.0 mg/kg/injection, schedule: Q01DX Z (ip), vehicle: saline). Further, the T/C is 102 % of control (dose: 30.0 mg/kg/injection, schedule: Q01DX Z (oral), vehicle: saline); 112 % of control (dose: 33.0 mg/kg/injection, schedule: Q01DX001 (ip), vehicle: carboxymethylcellulose (CMC)); 107 % of control (dose: 33.0 mg/kg/injection, schedule: Q04DX003 (ip), vehicle: saline); 120 % of control (dose: 37.5 mg/kg/injection, schedule: Q01DX009 (ip), vehicle: saline with Tween-80); 117 % of control (dose: 50.0 mg/kg/injection, schedule: Q01DX001 (ip), vehicle: carboxymethylcellulose (CMC)); 108 % of control and 109 % of control (dose: 60.0 mg/kg/injection, schedule: Q01DX Z (oral), vehicle: saline). Moreover, the T/C runs as follows: (dose: 75.0 mg/kg/injection, schedule: Q04DX003 (ip), vehicle: saline) 183 % of control; (dose: 100.0 mg/kg/injection, schedule: Q04DX003 (ip), vehicle: saline) 120 % of control; (dose: 120.0 mg/kg/injection, schedule: Q01DX Z (oral), vehicle: saline) 103 % of control and 108 % of control; (dose: 240.0 mg/kg/injection, schedule: Q01DX Z (oral), vehicle: saline) 112 % of control; (dose: 480.0 mg/kg/injection, schedule: Q01DX Z (oral), vehicle: saline) 106 % of control.

`Clc1ccc(CSSCc2ccc(Cl)cc2Cl)c(Cl)c1`: the T/C (dose: 100.0 mg/kg/injection, schedule: Q04DX002 (ip), vehicle: gum acacia) is 95 % of control; the T/C (dose: 200.0 mg/kg/injection, schedule: Q04DX002 (ip), vehicle: gum acacia) was 116 % of control; the T/C (dose: 400.0 mg/kg/injection, schedule: Q04DX002 (ip), vehicle: gum acacia) was 100 % of control.

For the compound `CCC[CH2][Sn]([Br])([c]1ccccc1)[c]1ccccc1`, the T/C is 92 % of control (dose: 0.39 mg/kg/injection, schedule: Q01DX009 (ip), vehicle: saline with Tween-80); 101 % of control (dose: 0.78 mg/kg/injection, schedule: Q01DX009 (ip), vehicle: saline with Tween-80); 89 % of control (dose: 1.56 mg/kg/injection, schedule: Q01DX009 (ip), vehicle: saline with Tween-80).

`CCCN1CCN(CCO)CC1C` (stereo not drawn): the T/C runs as follows: under setting [1], 98 % of control; under setting [2], 101 % of control; under setting [3], 98 % of control.

As to `CCSC(C(Nc1ccc([N+](=O)[O-])cc1[N+](=O)[O-])C(O)C(O)C(O)CO)n1cc(C)c(=O)[nH]c1=O` (stereo not drawn), the T/C runs as follows: (dose: 50.0 mg/kg/injection, schedule: Q01DX001 (ip), vehicle: saline) 97 % of control; under setting [1], 100 % of control; under setting [2], 100 % of control; under setting [3], 100 % of control.

As for `COC(=O)C1CCC2(C)CCC(=O)C(C)C2C1` (stereo not drawn), the T/C (dose: 100.0 mg/kg/injection, schedule: Q01DX001 (ip), vehicle: Klucel (hydroxypropylcellulose) (HPC)) was 101 % of control; the T/C (dose: 100.0 mg/kg/injection, schedule: Q04DX003 (ip), vehicle: Klucel (hydroxypropylcellulose) (HPC)) is 104 % of control; the T/C (dose: 200.0 mg/kg/injection, schedule: Q01DX001 (ip), vehicle: Klucel (hydroxypropylcellulose) (HPC)) was 104 % of control; the T/C (dose: 200.0 mg/kg/injection, schedule: Q04DX003 (ip), vehicle: Klucel (hydroxypropylcellulose) (HPC)) is 106 % of control; the T/C (dose: 400.0 mg/kg/injection, schedule: Q01DX001 (ip), vehicle: Klucel (hydroxypropylcellulose) (HPC)) was 92 % of control; the T/C (dose: 400.0 mg/kg/injection, schedule: Q04DX003 (ip), vehicle: Klucel (hydroxypropylcellulose) (HPC)) was 104 % of control.

Take `NNC(=O)CNc1ccc(F)c(F)c1`: the T/C under setting [4] is 104 % of control and the T/C under setting [5] was 108 % of control.

Take `CCOC(=O)C1(CCC(C)=O)CCCCC1=O` (stereo not drawn): the T/C under setting [4] was 97 % of control; the T/C under setting [5] was 103 % of control; the T/C (dose: 400.0 mg/kg/injection, schedule: Q04DX002 (ip), vehicle: Klucel (hydroxypropylcellulose) (HPC)) was 100 % of control.

For `O=C(CSCCCCl)OCCSCCCCl`, the T/C runs as follows: (dose: 17.5 mg/kg/injection, schedule: Q01DX Z (ip), vehicle: saline) 93 % of control; (dose: 70.0 mg/kg/injection, schedule: Q01DX Z (ip), vehicle: saline) 104 % of control.

For `CC(C)NCC(C#N)C1CCCCC1` (stereo not drawn), the T/C reads like this: (dose: 100.0 mg/kg/injection, schedule: Q01DX001 (ip), vehicle: saline with Tween-80) 97 % of control; (dose: 200.0 mg/kg/injection, schedule: Q01DX001 (ip), vehicle: saline with Tween-80) 93 % of control; (dose: 400.0 mg/kg/injection, schedule: Q01DX001 (ip), vehicle: saline with Tween-80) 97 % of control.

In the case of `NC(=O)c1cc(Cl)cc(Cl)c1Br`, the T/C is, setting by setting: (dose: 100.0 mg/kg/injection, schedule: Q04DX003 (ip), vehicle: other) 95 % of control; (dose: 200.0 mg/kg/injection, schedule: Q04DX003 (ip), vehicle: other) 103 % of control.

As to `O=C1OCC/C1=C\c1ccc2c(c1)OCO2`, the T/C was 105 % of control (dose: 100.0 mg/kg/injection, schedule: Q04DX003 (ip), vehicle: saline with Tween-80); 101 % of control (dose: 200.0 mg/kg/injection, schedule: Q04DX003 (ip), vehicle: saline with Tween-80); 90 % of control (dose: 400.0 mg/kg/injection, schedule: Q04DX003 (ip), vehicle: saline with Tween-80).

As for `CCc1ccccc1NC(=O)Nc1ccc(Cl)cc1`, the T/C runs as follows: (dose: 100.0 mg/kg/injection, schedule: Q01DX009 (ip), vehicle: gum acacia) 96 % of control; (dose: 100.0 mg/kg/injection, schedule: Q04DX003 (ip), vehicle: gum acacia) 95 % of control; (dose: 200.0 mg/kg/injection, schedule: Q01DX009 (ip), vehicle: gum acacia) 96 % of control; (dose: 200.0 mg/kg/injection, schedule: Q04DX003 (ip), vehicle: gum acacia) 98 % of control; (dose: 400.0 mg/kg/injection, schedule: Q01DX009 (ip), vehicle: gum acacia) 97 % of control; (dose: 400.0 mg/kg/injection, schedule: Q04DX003 (ip), vehicle: gum acacia) 97 % of control.

Regarding `c1ccc2c(c1)CCc1ccccc1CN(CCN1CCCC1)C2`, the T/C by setting is: (dose: 25.0 mg/kg/injection, schedule: Q01DX009 (ip), vehicle: Klucel (hydroxypropylcellulose) (HPC)) 96 % of control; (dose: 100.0 mg/kg/injection, schedule: Q01DX009 (ip), vehicle: Klucel (hydroxypropylcellulose) (HPC)) 99 % of control.

On to `CC1SC(=S)N(c2ccccc2)C1=O` (stereo not drawn), for which the T/C (dose: 100.0 mg/kg/injection, schedule: Q01DX009 (ip), vehicle: saline with Tween-80) was 92 % of control and the T/C (dose: 200.0 mg/kg/injection, schedule: Q01DX009 (ip), vehicle: saline with Tween-80) is 106 % of control.

For `CCC1CN1P1(=O)OCC(C)(C(=O)OC)CO1` (stereo not drawn), the T/C is, setting by setting: under setting [1], 101 % of control; under setting [2], 108 % of control; under setting [3], 101 % of control.

Regarding `CC(C)(C)N=Cc1ccccc1O.CC(C)(C)N=Cc1ccccc1O.[Cu]`, the T/C reads like this: (dose: 6.25 mg/kg/injection, schedule: Q04DX003 (ip), vehicle: saline with Tween-80) 94 % of control; (dose: 12.5 mg/kg/injection, schedule: Q04DX003 (ip), vehicle: saline with Tween-80) 104 % of control; (dose: 25.0 mg/kg/injection, schedule: Q04DX003 (ip), vehicle: saline with Tween-80) 96 % of control.
